Key:
megalin [1] = biological target: megalin (Mus musculus, UniProt A2ARV4)
Experimental: Female C57BL/6 mice were divided into two groups. The first group (n=4) was treated subcutaneously with 100 mg/kg Cilastatin sodium salt (>98%, Sigma Aldrich, USA) once daily for 4 days, and the second group (n=3) was treated subcutaneously with DPBS for 4 days. On the day of the last treatment, the LC-NP was injected to the mice. 1 day post injection the mice were euthanized and perfused with DPBS, and the kidneys were harvested and imaged.
Without being bound by any particular theory, it was hypothesized that the accumulation of LC-NP in the PTECs of the kidney is dependent on its binding to megalin. To test this hypothesis, the mice were treated with cilastatin or vehicle (DPBS) for 4 days prior to injection of LC-NP. Cilastatin, an inhibitor of renal dehydropeptidase-I (DHP-I), blocks megalin-mediated uptake in the kidney through competitive inhibition^33. 24 hours post-injection of LC-NP, the mice were euthanized and the major organs were harvested for imaging. […] Next, the specific effect of cilastatin on the binding of LC-NPs to PTECs was examined by treating HK-2 human PTECs in vitro directly with LC-NPs and cilastatin.

megalin [2] = biological target: T1, megalin (Homo sapiens, UniProt P98164); assay: Uptake of LC-NPs by HK-2 cells after cilastatin or megalin siRNA; assay type: cell-based; conditions: in vitro
T1 construct: effective knockdown of megalin expression in HK-2 cells was performed using siRNA directed against the megalin gene; host or cells: HK-2 human kidney proximal tubular epithelial cells
From the text: FIG. 4G-FIG. 4I. […] FIG. 4H: LC-NPs underwent lower uptake by HK-2 cells treated with cilastatin than vehicle (DPBS)-treated cells. […] Values are means±SD. means±SD. **P<0.01, and ***P<0.001 and ns: not significant as calculated by two-tailed Student's t-test.

Sequence of megalin (Mus musculus, UniProt A2ARV4) (A2ARV4 26-4660): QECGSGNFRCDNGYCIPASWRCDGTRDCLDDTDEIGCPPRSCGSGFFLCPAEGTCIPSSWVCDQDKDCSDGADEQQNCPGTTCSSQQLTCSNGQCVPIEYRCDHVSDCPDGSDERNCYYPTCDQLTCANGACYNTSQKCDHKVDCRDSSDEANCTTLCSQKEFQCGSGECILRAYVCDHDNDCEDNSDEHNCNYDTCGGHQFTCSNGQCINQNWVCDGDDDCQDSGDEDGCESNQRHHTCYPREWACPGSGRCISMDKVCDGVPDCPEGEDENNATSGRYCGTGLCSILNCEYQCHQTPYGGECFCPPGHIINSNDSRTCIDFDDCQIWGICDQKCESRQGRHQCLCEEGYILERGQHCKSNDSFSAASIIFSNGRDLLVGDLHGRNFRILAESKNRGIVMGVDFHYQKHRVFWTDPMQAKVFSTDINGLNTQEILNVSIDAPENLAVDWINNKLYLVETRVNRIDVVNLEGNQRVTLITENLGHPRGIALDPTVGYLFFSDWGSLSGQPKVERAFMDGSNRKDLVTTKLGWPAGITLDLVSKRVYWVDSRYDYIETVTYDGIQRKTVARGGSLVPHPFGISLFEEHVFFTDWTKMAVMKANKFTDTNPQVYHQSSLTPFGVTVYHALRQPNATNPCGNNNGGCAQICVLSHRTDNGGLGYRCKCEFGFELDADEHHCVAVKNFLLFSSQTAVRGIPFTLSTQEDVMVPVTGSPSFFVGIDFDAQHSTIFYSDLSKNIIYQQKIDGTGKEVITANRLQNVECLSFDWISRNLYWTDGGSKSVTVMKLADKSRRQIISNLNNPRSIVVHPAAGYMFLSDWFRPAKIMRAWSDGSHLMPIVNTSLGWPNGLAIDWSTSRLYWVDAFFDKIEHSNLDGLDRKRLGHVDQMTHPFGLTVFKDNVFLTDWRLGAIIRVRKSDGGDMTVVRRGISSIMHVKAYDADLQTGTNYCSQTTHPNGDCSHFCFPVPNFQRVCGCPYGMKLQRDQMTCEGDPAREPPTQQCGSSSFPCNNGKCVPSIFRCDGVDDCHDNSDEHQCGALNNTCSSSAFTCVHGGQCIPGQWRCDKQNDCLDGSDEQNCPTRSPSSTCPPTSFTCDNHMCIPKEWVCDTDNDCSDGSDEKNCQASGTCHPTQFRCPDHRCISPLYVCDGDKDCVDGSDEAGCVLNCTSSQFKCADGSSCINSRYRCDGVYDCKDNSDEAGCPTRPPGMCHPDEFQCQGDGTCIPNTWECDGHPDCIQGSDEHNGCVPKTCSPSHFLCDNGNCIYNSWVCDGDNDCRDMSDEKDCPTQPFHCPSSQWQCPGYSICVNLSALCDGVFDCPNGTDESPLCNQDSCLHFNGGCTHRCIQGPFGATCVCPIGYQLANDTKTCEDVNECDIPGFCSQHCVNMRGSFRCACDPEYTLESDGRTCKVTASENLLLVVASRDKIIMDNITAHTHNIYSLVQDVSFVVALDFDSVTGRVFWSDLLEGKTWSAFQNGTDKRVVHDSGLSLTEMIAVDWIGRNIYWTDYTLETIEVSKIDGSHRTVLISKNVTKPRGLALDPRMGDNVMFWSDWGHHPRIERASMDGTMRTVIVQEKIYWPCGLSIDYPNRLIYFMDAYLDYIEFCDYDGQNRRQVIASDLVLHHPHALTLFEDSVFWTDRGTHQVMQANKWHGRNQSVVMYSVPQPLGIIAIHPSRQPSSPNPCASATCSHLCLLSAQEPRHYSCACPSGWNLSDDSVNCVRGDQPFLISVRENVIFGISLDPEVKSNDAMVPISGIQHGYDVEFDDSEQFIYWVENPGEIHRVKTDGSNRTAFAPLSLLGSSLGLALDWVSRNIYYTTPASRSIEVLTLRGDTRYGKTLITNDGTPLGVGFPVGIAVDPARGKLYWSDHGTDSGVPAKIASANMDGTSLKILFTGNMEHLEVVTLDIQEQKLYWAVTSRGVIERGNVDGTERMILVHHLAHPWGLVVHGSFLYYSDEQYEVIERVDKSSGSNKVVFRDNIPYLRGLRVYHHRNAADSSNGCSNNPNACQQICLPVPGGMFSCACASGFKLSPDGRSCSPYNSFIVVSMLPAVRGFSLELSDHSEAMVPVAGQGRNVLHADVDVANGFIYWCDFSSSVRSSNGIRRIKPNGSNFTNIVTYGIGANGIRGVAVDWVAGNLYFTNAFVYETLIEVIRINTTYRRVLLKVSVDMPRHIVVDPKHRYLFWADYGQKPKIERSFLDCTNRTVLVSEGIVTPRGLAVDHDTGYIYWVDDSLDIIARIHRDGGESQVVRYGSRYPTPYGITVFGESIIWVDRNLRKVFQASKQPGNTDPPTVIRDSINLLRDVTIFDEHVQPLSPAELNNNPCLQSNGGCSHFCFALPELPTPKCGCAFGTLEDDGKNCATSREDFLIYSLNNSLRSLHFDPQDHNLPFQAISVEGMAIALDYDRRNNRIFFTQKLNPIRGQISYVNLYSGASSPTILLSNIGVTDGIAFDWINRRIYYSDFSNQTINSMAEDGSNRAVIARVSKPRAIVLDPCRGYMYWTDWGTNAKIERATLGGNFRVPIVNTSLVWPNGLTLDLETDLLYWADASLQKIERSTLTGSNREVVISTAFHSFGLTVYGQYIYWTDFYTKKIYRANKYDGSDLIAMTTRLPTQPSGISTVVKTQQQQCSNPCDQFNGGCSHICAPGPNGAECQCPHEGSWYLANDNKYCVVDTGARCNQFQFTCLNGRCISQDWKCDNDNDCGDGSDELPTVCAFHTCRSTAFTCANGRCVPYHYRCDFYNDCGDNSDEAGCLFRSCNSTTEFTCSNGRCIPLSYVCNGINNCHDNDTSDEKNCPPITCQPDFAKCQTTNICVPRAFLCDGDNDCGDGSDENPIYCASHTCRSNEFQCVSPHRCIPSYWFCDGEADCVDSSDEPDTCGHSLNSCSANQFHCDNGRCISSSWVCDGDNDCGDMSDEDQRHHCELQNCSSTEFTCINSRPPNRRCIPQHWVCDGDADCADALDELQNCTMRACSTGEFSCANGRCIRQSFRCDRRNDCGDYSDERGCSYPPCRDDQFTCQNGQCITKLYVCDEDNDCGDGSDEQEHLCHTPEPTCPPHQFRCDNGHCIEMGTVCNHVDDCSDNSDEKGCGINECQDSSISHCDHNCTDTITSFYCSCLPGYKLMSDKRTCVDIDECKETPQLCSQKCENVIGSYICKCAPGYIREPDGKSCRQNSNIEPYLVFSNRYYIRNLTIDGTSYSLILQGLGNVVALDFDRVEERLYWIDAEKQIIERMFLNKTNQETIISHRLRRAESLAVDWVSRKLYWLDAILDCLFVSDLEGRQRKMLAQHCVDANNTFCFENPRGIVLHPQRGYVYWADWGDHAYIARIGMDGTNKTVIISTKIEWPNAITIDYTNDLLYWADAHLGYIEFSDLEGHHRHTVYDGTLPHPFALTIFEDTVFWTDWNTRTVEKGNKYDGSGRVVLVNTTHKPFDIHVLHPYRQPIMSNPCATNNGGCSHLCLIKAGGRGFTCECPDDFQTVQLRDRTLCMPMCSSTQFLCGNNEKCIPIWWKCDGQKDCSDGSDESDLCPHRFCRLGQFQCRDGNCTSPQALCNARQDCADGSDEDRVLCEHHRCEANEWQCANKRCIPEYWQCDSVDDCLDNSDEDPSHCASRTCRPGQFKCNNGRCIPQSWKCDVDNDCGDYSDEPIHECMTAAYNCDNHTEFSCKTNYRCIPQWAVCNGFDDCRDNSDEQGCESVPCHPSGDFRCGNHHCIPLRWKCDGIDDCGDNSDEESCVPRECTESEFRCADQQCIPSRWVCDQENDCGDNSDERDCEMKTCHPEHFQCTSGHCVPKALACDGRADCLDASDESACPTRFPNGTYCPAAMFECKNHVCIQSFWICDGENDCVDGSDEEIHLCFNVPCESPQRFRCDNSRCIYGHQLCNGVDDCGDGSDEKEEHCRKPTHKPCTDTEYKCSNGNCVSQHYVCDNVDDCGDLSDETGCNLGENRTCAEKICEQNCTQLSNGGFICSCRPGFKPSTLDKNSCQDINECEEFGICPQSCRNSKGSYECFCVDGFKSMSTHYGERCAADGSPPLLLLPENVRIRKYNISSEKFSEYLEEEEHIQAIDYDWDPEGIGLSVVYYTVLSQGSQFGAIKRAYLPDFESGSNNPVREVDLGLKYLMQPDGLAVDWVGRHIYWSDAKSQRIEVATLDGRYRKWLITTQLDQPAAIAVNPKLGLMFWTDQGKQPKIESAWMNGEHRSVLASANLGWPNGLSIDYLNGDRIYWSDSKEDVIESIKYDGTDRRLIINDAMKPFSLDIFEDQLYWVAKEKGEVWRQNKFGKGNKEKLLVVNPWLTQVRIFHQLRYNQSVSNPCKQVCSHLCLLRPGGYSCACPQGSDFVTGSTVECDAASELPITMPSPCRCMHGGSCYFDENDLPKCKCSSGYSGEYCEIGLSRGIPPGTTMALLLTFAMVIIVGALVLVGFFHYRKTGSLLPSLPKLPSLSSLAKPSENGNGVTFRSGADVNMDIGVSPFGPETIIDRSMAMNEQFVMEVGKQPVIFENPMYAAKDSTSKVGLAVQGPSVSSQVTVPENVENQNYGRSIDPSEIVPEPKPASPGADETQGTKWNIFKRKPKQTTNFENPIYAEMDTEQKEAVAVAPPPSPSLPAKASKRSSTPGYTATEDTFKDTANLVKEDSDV

kidney MFI of LC-NP, cilastatin-treated vs vehicle-treated mice (megalin [1]; cilastatin 4 days before LC-NP, 24 hours post-injection): significantly lower
kidney MFI of NPs, cilastatin-treated vs vehicle-treated mice (megalin [1]; mice injected with NPs): no statistical difference
number of LC-NPs taken up by HK-2 cells, with vs without cilastatin (megalin [2]): significantly lower
SMILES: CC1(C)C[C@@H]1C(=O)N/C(=C\CCCCSC[C@H](N)C(=O)O)C(=O)O [cilastatin, Cilastatin]

Source: US12721906B2, “Kidney targeted delivery of drugs” (The Brigham and Women's Hospital, Inc., priority 2020, dated 2026)
